This is an account of results in patent publication US6579902B1, “Ribose-substituted aromatic amides, method for the production and use thereof as medicaments” (Aventis Pharma S.A., priority 1999, dated 2003).

Holding throughout (assay type): cell-based
For assay [1], the system named is Strepto. pyogene 02A1UC1. The assay is described as follows: MIC, method of dilutions in a liquid medium. The following applies: incubation 24 hours at 37° C. On the procedure:
(§1) A—Method of Dilutions in a Liquid Medium
(§2) A series of tubes was prepared in which the same quantity of sterile nutritive medium is distributed. Increasing quantities of the product to be studied are distributed in each tube, then each tube is seeded with a bacterial strain. After incubation for 24 hours in an oven at 37° C., the growth inhibition is evaluated by transillumination which allows the minimum inhibitory concentrations (M.I.C) to be determined, expressed in micrograms/cm^3.

The subject of assay [2] is Entero faecium 02D3IP2. The assay is described as follows: MIC, method of dilutions in a liquid medium. The following applies: incubation 24 hours at 37° C. On the procedure:
as §1, §2

Assay [3] has as its system Staph. aureus 011HT18. Kind of assay: MIC, method of dilutions in a liquid medium. The following applies: incubation 24 hours at 37° C. On the procedure:
as §1, §2

In assay [4] the test system is Strepto pneumoniae 030BI2. Kind of assay: MIC, method of dilutions in a liquid medium. The following applies: incubation 24 hours at 37° C. On the procedure:
as §1, §2

For assay [5], the system named is Staph. epidermidis 0126042. Kind of assay: MIC, method of dilutions in a liquid medium. The following applies: incubation 24 hours at 37° C. On the procedure: as §1, §2
Assay [6] relates to Entero faecalis 02D2UC5. Kind of assay: MIC, method of dilutions in a liquid medium. The following applies: incubation 24 hours at 37° C. On the procedure: as §1, §2
The subject of assay [7] is Staph. Coag. Negative 012HT5. The assay is described as follows: MIC, method of dilutions in a liquid medium. To be noted: incubation 24 hours at 37° C. On the procedure: as §1, §2
Assay [8] deals with bacterial strain. The assay is described as follows: Activity in vitro, method of dilutions in a liquid medium (overall statement). The following applies: summary of the MIC test on the listed strains. On the procedure: as §1, §2

One may read the MIC as the smallest concentration in the dilution series that meets the test's criterion for growth inhibition. The low end stands for inhibition by little substance, the high end for a need for much substance.

Values after ≈ are worked out from the molar mass of the structure shown.

`C#CCONC(=O)OC1C(O)C(c2ccc3c(O)c(NC(=O)c4ccccc4)c(=O)oc3c2C)OC2(CCCC2)C1OC` (stereo not drawn) [EX. 10, [7R-(7.α.,8.β,9.β,10.α)]-(2-Propynyloxy)-carbamate of 8-Hydroxy-7-[4-hydroxy-8-methyl-2-oxo-3-(benzoylamino)-2H-1-benzopyran-7-yl)-10-methoxy-6-oxaspiro[4,5]decan-9-yl]: the MIC in assay [1] was 0.16 µg/mL (≈ 0.27 µM); in assay [2], 0.63 µg/mL (≈ 1.06 µM); in assay [3], “≦0.04 μg/ml”; in assay [4] it was “≦0.04 μg/ml”; in assay [5], “≦0.04 μg/ml”; in assay [6] it was 1.2 µg/mL (≈ 2.02 µM). This compound also displayed an MIC in assay [7] of 0.08 µg/mL (≈ 0.135 µM). Besides, in assay [8], the “activity in vitro (in words)” value is “excellent activity”.

In the case of `C#CCONC(=O)OC1CC(c2ccc3c(O)c(NC(=O)C(C)C)c(=O)oc3c2C)OC2(CCCC2)C1OC` (stereo not drawn) [EX. 11, [7R-(7.α.,8β.,9β.,10.α)]-(2-Propynyloxy)-carbamate of 7-[4-Hydroxy-8-methyl-3-[(2-methyl-1-oxo-propyl)amino]-2-oxo-2H-1-benzopyran-7-yl]-10-methoxy-6-oxaspiro[4,5]decan-9-yl], the MIC in assay [1] is 0.08 µg/mL (≈ 0.147 µM); in assay [2], 0.32 µg/mL (≈ 0.59 µM); in assay [3] it was “≦0.04 μg/ml”; in assay [4], “≦0.04 μg/ml”; in assay [5] it was “≦0.04 μg/ml”; in assay [6], 0.63 µg/mL (≈ 1.16 µM). In assay [7], this compound showed an MIC of 0.15 µg/mL (≈ 0.276 µM). The “activity in vitro (in words)” value in assay [8] is listed as “excellent activity”.
